Measurements reported in ChEMBL document CHEMBL1201862, “PubChem BioAssay data set” (2004).
Active and inactive are the calls of the source.

Key:
Leucine aminopeptidase = molecular target: T1, Leucine aminopeptidase (Plasmodium falciparum 3D7, UniProt Q8IL11); assay: P. falciparum M17LAP inhibitors, primary screen, biochemical, fluorogenic H-Leu-NHMec substrate, 1536-well (AID 1619); assay type: functional
T1 sequence (Q8IL11 whole entry): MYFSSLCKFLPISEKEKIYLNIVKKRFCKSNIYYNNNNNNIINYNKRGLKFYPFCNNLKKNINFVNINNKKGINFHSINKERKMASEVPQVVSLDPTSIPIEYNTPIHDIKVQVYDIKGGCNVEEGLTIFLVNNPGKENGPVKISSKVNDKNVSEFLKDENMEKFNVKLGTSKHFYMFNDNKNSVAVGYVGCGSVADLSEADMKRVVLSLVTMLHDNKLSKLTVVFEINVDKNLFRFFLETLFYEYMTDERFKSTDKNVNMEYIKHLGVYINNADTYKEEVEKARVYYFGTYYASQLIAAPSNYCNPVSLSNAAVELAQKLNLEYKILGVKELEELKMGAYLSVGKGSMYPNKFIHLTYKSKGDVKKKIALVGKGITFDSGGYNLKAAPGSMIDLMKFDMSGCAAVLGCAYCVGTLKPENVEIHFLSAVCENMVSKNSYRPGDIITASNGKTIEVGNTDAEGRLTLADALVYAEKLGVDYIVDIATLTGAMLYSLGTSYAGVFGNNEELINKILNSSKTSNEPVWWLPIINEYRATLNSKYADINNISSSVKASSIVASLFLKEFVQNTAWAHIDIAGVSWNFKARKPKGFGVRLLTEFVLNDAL

[1] = molecular target: Induced myeloid leukemia cell differentiation protein Mcl-1 (Homo sapiens, UniProt Q07820); assay type: functional
H9c2 = assay: cells; assay type: functional, cell-based; settings: Rattus norvegicus, H9c2, Myocardium
[2] = molecular target: T2, Mannose-6-phosphate isomerase (Homo sapiens, UniProt P34949); assay: MPI inhibition at elevated mannose 6-phosphate – biochemical, fluorescence intensity, high mannose 6-phosphate, primary screen (AID 1220)
T2 sequence (P34949 whole entry): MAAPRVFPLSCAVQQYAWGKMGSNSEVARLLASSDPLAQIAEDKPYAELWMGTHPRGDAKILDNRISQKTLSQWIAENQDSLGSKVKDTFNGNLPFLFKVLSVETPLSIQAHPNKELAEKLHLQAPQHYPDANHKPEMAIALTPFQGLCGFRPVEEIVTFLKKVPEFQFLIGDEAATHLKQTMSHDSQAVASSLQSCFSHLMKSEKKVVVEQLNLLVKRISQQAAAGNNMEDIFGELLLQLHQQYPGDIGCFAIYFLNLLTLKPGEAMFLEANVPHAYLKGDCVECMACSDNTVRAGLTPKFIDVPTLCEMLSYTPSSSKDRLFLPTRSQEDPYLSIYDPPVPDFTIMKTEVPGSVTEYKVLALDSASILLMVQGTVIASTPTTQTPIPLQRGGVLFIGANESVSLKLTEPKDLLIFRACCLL

[3] = HEK-293T cell viability reduction – luminescence, B-cell screen hits, cytotoxicity control for BCR NF-kB inhibitor project, dose response (AID 489021); assay type: functional, cell-based;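 further: HEK-293T cells carrying an NF-kB luciferase reporter; cells exposed to compound for about 14 hours before viability readout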
[4] = molecular target: T3, Polyadenylate-binding protein 1 (Homo sapiens, UniProt P11940); assay: MLLE binding blockers, Cy5 peptide tracer – biochemical, fluorescence polarization, Cy5-PAM2 peptide, secondary, miRNA deadenylation inhibitor project, dose response (AID 602260); assay type: functional; settings: read-out: IC50_Mean
[5] = molecular target: T4, Ubiquitin-conjugating enzyme E2 N (Homo sapiens, UniProt P61088); assay type: functional;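 further: Dose-response confirmation in a TR-FRET assay detecting UBC13-driven polyubiquitin chain formation, inhibition measured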
T4 sequence (P61088 whole entry): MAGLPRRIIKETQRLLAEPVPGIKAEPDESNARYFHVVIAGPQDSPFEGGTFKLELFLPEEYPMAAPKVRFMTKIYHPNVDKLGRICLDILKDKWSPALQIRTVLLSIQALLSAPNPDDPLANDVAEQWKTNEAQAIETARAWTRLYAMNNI

[6] = molecular target: T5, Replicative DNA helicase DnaB (Mycobacterium tuberculosis, UniProt P9WMR3); assay: DnaB intein splicing inhibitors, dose response, biochemical, cell-free fluorescence (AID 449749); assay type: functional
T5 sequence (P9WMR3 whole entry): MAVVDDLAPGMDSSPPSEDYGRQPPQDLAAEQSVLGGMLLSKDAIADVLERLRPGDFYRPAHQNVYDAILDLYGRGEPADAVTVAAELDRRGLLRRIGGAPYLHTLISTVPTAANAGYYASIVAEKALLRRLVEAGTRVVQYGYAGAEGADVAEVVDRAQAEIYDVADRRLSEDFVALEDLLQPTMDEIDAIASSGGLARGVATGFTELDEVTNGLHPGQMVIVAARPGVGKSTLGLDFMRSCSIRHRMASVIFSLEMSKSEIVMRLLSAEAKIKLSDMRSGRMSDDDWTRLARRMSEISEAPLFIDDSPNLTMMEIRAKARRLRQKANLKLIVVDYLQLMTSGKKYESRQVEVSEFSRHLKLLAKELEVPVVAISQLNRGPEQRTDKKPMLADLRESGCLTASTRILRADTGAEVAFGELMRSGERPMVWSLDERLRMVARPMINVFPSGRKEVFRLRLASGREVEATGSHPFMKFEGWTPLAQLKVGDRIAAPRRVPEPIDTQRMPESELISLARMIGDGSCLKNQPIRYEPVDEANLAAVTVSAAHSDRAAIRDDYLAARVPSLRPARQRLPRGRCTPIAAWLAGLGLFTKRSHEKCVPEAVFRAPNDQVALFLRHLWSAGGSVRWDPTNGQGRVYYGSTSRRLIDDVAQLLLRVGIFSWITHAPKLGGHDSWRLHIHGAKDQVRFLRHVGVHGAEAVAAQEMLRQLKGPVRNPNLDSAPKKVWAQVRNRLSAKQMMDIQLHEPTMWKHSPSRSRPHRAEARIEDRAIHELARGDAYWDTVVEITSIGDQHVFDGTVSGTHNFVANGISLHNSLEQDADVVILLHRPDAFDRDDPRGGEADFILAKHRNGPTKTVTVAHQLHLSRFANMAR

[7] = molecular target: T3, Polyadenylate-binding protein 1; assay: MLLE domain peptide-binding blockers, IC50 – biochemical, fluorescence polarization, FITC-PAM2 peptide, dose response (AID 602259); assay type: functional; settings: read-out: IC50_Mean
Protein RecA = molecular target: T6, Protein RecA (Mycobacterium tuberculosis, UniProt P9WHJ3); assay: Fluorescence Cell-Free Homogeneous Dose Retest to Identify Inhibitors of RecA-Intein Splicing Activity. [Related pubchem assays (depositor defined):AID2097, AID2223, AID489010, AID492950]; assay type: functional
T6 sequence (P9WHJ3 whole entry): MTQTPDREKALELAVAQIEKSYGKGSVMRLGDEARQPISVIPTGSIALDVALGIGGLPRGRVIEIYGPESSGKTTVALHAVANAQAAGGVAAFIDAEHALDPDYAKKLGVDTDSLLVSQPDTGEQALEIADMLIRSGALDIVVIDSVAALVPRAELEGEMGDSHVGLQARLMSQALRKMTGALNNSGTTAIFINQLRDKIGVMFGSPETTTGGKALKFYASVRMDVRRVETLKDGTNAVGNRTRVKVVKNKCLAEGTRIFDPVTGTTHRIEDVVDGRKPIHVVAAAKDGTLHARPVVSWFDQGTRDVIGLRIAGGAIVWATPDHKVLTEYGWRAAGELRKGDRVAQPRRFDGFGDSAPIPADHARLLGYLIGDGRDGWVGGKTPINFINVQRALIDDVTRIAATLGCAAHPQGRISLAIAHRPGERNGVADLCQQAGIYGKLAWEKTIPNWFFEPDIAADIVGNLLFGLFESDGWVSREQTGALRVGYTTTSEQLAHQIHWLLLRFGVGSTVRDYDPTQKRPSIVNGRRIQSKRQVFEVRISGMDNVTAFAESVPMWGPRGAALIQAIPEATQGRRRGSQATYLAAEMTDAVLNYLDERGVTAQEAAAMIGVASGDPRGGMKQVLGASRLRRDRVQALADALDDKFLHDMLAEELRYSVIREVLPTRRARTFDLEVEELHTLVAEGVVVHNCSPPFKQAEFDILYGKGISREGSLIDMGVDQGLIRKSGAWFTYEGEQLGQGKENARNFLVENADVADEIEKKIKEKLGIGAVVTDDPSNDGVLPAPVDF

Fatty acid synthase [8] = molecular target: T7, Fatty acid synthase (Homo sapiens, UniProt P49327); assay: inhibition of human FAS-TE enzyme activity – biochemical, endpoint fluorescence intensity, uHTS hits, dose response (AID 624327); assay type: functional;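 further: fluorescence from hydrolysis of an O-methyl fluorescein acyl ester substrate by the enzyme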
Fatty acid synthase [9] = molecular target: T7, Fatty acid synthase; assay: inhibition of human FAS-TE enzyme activity – biochemical, kinetic fluorescence intensity, dose response (AID 624326); assay type: functional;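 further: rate of fluorescence rise from hydrolysis of a fluorogenic O-methyl fluorescein ester substrate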
[10] = Luminescence Cell-Based Dose Retest to Confirm Inhibitors of Cancer Stem Cells. [Related pubchem assays (depositor defined):AID2717, AID2721]; assay type: functional; settings: Homo sapiens
SN12K1 = assay: cells; assay type: functional; settings: Homo sapiens
P388 = assay: cells; assay type: functional; settings: Mus musculus
P388/ADR = assay: cells; assay type: functional; settings: Mus musculus
[11] = OVCAR-3 cell viability loss – plate reader, dry powder samples, PAX8 inhibitor project, dose response (AID 743044); assay type: functional, cell-based
[12] = OVCAR8 cell viability loss – plate reader, dry powder samples, PAX8 project, dose response (AID 743197); assay type: functional, cell-based; settings: OVCAR-8
Paired box protein Pax-8 = Paired box protein Pax-8 (Homo sapiens, UniProt Q06710); assay: PAX8 transcriptional activity inhibition in RMG-I – RMG-I cells, luciferase, cherry-pick, dose response (AID 687027); assay type: functional, cell-based;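 further: luciferase reporter driven by Pax8 target thyroperoxidase promoter measured by SteadyGlo luminescence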
Paired box protein Pax-8, sequence (Q06710 whole entry): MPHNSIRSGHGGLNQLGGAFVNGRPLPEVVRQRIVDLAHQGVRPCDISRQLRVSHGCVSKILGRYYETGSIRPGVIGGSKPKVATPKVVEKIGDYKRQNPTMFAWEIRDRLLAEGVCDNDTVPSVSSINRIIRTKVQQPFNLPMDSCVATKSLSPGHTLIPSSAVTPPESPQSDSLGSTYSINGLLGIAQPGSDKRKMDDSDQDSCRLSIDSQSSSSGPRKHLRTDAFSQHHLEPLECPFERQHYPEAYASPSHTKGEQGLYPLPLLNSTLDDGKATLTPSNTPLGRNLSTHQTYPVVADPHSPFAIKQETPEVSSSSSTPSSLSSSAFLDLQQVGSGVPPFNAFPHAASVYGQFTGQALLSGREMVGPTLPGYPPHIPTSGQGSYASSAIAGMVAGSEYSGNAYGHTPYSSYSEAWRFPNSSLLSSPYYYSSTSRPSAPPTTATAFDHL

Induced myeloid leukemia cell differentiation protein Mcl-1, sequence (Q07820 whole entry): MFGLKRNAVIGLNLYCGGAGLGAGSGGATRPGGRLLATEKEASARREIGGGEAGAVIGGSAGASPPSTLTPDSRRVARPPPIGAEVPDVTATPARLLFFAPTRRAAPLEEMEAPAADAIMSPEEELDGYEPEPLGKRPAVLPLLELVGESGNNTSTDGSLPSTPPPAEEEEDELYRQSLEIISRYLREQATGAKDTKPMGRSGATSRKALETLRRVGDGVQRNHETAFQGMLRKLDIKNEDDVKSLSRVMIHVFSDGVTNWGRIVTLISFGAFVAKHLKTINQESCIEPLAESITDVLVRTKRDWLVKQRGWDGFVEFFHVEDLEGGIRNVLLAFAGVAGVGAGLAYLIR
T3 sequence (P11940 whole entry): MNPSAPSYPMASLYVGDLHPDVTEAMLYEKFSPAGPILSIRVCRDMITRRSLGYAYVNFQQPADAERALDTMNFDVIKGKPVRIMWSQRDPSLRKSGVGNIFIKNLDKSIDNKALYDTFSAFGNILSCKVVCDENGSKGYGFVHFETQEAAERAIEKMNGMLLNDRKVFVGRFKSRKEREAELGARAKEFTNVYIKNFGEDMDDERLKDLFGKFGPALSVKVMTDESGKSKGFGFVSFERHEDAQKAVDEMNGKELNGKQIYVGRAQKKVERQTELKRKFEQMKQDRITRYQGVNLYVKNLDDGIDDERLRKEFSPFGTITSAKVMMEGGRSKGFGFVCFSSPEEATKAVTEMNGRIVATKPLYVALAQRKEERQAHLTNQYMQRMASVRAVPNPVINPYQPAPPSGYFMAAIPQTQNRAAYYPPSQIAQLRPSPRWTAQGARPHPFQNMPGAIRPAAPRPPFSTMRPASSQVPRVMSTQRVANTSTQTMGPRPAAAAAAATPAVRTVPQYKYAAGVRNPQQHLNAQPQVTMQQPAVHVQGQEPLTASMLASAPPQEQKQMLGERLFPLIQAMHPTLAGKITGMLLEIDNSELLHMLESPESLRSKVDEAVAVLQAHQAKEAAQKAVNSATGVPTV
T7 sequence (P49327 whole entry): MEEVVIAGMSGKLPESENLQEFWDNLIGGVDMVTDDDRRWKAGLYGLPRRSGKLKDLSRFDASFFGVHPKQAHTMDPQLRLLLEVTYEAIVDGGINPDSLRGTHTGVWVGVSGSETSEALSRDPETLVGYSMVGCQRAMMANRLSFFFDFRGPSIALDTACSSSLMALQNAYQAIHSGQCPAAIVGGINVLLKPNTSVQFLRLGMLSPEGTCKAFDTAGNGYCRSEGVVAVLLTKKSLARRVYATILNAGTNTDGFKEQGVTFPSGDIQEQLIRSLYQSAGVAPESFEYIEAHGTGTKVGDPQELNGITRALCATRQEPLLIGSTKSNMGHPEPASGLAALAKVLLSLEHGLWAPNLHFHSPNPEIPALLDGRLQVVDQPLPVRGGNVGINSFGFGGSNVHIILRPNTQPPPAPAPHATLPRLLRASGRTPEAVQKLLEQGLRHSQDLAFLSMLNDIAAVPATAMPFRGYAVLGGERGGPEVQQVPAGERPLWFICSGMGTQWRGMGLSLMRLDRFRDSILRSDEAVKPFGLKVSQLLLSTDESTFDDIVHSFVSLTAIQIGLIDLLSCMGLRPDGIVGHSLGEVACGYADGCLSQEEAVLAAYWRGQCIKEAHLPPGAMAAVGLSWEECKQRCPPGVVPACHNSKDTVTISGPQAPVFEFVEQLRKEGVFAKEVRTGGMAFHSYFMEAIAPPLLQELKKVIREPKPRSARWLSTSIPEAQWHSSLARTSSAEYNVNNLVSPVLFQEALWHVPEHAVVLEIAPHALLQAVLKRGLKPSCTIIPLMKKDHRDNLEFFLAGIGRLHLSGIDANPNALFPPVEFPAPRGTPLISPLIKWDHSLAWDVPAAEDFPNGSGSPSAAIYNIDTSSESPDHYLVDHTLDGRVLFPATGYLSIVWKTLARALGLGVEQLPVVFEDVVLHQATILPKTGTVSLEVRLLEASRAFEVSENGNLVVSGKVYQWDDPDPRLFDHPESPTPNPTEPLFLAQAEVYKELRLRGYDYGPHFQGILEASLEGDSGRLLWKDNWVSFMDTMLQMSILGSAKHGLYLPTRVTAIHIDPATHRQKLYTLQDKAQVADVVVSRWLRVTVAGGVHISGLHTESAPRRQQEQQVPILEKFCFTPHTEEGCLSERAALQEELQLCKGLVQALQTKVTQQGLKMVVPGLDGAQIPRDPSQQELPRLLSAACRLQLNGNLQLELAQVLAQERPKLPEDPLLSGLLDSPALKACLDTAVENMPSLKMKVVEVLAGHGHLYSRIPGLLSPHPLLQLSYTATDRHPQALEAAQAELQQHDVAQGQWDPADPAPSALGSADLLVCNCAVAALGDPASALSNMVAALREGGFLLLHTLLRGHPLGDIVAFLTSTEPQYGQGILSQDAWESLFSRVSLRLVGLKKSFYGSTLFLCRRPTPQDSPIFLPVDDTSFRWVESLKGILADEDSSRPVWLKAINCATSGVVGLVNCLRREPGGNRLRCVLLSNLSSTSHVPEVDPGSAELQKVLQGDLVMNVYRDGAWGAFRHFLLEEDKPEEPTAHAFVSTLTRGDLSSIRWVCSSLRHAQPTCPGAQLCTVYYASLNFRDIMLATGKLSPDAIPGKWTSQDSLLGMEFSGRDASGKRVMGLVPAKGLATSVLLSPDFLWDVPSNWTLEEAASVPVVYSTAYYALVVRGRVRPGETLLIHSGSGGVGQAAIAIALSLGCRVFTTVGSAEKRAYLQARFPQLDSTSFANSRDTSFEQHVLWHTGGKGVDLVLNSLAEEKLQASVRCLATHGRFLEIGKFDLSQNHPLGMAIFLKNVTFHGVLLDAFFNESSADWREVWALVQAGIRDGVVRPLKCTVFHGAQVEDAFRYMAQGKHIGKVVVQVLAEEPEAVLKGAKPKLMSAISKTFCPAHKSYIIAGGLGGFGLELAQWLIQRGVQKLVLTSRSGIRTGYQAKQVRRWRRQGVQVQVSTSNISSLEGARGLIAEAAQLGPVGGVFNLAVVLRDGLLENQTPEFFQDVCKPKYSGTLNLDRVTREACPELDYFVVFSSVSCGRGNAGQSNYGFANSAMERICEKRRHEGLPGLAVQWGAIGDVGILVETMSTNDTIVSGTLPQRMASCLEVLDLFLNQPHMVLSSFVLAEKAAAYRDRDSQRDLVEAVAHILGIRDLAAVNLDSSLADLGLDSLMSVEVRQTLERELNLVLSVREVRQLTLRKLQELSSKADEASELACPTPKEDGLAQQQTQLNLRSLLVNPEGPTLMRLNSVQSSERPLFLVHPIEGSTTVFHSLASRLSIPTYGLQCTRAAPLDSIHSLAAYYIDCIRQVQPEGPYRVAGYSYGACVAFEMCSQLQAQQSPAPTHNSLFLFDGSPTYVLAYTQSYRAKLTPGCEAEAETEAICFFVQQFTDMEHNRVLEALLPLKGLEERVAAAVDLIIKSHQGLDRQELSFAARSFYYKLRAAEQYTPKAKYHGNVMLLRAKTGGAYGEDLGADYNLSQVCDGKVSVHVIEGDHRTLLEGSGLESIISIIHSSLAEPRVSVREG

## O=C(O)Cn1nnnc1SCC(=O)Nc1ccc(OC(F)(F)F)cc1
Leucine aminopeptidase
  IC50: 5.22 µM (active)

## CC(C)Oc1ccc(C(CC(=O)O)NC(=O)CSc2nnc[nH]2)cc1 (centres undefined)
Leucine aminopeptidase
  IC50: 47.4 µM (active)

## COc1ccc(NC(=O)CSc2ncnc3c2sc2ccccc23)c(OC)c1
[1]
  IC50: 10.3 µM (not active)

## CCCOc1ccc(C(=O)Nc2ccc(N(C)C)cc2)cc1
[1]
  IC50: 3.27 µM (not active)

## CCC(C)Nc1ncnc2c1cnn2Cc1ccc(Cl)cc1 (centres undefined)
H9c2
  IC50: > 79 µM (inactive)

## Oc1ccc(N2CCN(c3ncnc4sc5c(c34)CCC5)CC2)cc1
[1]
  IC50: 4.31 µM (active)

## CNc1c([N+](=O)[O-])ccc2c1=NC1(CCCCC1)[N+]=2[O-]
[2]
  IC50: > 50 µM (not active)

## COc1ccc(-c2noc(N3CCC(C(=O)Nc4ccc(OC)c(OC)c4)CC3)n2)cc1
[3]
  IC50: > 80 µM (inactive)

## O=C(/C=C\c1cn(-c2ccccc2)nc1-c1ccc2c(c1)OCCO2)N1CCOCC1
H9c2
  IC50: > 79 µM (inactive)

## CCN=C(S)N=Nc1c(O)[nH]c2ccc([N+](=O)[O-])cc12
[4]
  IC50: > 66 µM (inactive)
[5]
  IC50: > 20 µM (inactive)
[6]
  AC50: > 380 µM (inactive)
[7]
  IC50: > 66 µM (inactive)
Protein RecA
  EC50: 56.6 µM (active)

## O=[N+]([O-])c1ccc(Sc2nnc(-c3ccccc3)[nH]2)nc1
Fatty acid synthase [8]
  IC50: 10.9 µM (active)
Leucine aminopeptidase
  IC50: 31.5 µM (active)
Fatty acid synthase [9]
  IC50: 10.6 µM (active)

## Cc1ccc(-c2[nH]c(C(=O)NCC3CCCO3)cc3c4ccccc4nc2-3)cc1 (centres undefined)
[3]
  IC50: > 80 µM (inactive)

## CCOc1ccc(N2C(=O)CC(SCCN)C2=O)cc1 (centres undefined)
Leucine aminopeptidase
  IC50: 23.6 µM (active)

## COc1cc(OC)cc(C(=O)Nc2ccc(C(=O)Nc3ccccc3OC)cc2)c1
H9c2
  IC50: > 79 µM (inactive)

## O=C(NNC(=O)C12CC3CC(CC(Br)(C3)C1)C2)c1ccccc1F
[3]
  IC50: > 80 µM (inactive)

## O=C(COC(=O)c1cc(O)nc(O)n1)Nc1cccc(Cl)c1
[5]
  IC50: > 20 µM (inactive)

## O=C(Nc1cccc(/C=C/c2ccccn2)c1)c1ccc(-n2cncn2)cc1
H9c2
  IC50: 38.2 µM (inactive)

## COc1cccc(-c2sc3ccccc3c2-c2ccc(OCCN3CCCCC3)cc2)c1
[5]
  IC50: > 20 µM (inactive)
[10]
  AC50: 1.43 µM (active)

## COc1cc(/C=C/C(=O)OCC(=O)N2c3ccccc3NC(=O)C2(C)C)cc(OC)c1OC
H9c2
  IC50: > 79 µM (inactive)

## C[C@H]1Cn2cnc(C(=O)N[C@@H](Cc3c[nH]c4ccccc34)C(=O)OC(C)(C)C)c2C(=O)N1
H9c2
  IC50: 18 µM (active)

## O=C(CCl)NNC1=Nc2ccc(Cl)cc2SC1
SN12K1
  GI50: 3.45 µM (inactive)
P388
  GI50: 0.236 µM (active)
P388/ADR
  GI50: 0.627 µM (active)

## C[C@@H]1CN([C@H](C)CO)C(=O)c2cc(NS(=O)(=O)c3ccc(F)cc3)ccc2O[C@@H](C)CCCCO[C@@H]1CN(C)CC1CCCCC1
[11]
  AC50: 44 µM (active)
[12]
  AC50: > 70 µM (inactive)
Paired box protein Pax-8
  AC50: 13 µM (active)

## C[C@@H]1CCCCO[C@H](CN(C)C(=O)Nc2ccc(C(F)(F)F)cc2)[C@@H](C)CN([C@@H](C)CO)C(=O)c2cc(NC(=O)Nc3ccc(C(F)(F)F)cc3)ccc2O1
[11]
  AC50: 19.6 µM (active)
[12]
  AC50: 32.8 µM (active)
Paired box protein Pax-8
  AC50: 2.32 µM (active)

## C/C=C1/C(=O)O[C@]23C=C[C@@H]4C(C(=O)OC)=CO[C@H](O[C@@H]12)[C@@H]43 [PLUMERICIN]
SN12K1
  GI50: 1.09 µM (active)
P388
  GI50: 0.105 µM (active)
P388/ADR
  GI50: 0.0853 µM (active)
